Measurements published in the NIST ThermoML archive (doi:10.1021/je050173+).
± gives the expanded uncertainty stated by the source.

How the values were obtained:
[1] = for mass density / viscosity / thermal conductivity: 101.33 kPa; for mass density / viscosity / thermal conductivity / vapor or sublimation pressure: Liquid; for surface tension liquid-gas: Maximal bubble pressure; for thermal conductivity: Hot wire method
[2] = molar heat capacity at constant pressure; conditions: 101.33 kPa, Liquid

C[Si]1(C)O[Si](C)(C)O[Si](C)(C)O[Si](C)(C)O1 [octamethylcyclotetrasiloxane]
mass density ([1]; 292 K): 957.55 ± 0.74 kg/m3 | surface tension liquid-gas ([1]; 293.15 K): 17.93 ± 0.16 mN/m | viscosity ([1]; 293.15 K): 2.45 ± 0.08 mPa·s | thermal conductivity ([1]; 298.15 K): 0.1131 ± 0.0005 W/m/K | mass density ([1]; 301.6 K): 946.16 ± 0.81 kg/m3 | surface tension liquid-gas ([1]; 303.15 K): 17.28 ± 0.16 mN/m | mass density ([1]; 303.15 K): 944.21 ± 0.83 kg/m3 | viscosity ([1]; 303.15 K): 2.06 ± 0.06 mPa·s | mass density ([1]; 311.2 K): 934.8 ± 0.88 kg/m3 | vapor or sublimation pressure ([1]; 311.8 K): 0.355 ± 0.08 kPa | surface tension liquid-gas ([1]; 313.15 K): 16.6 ± 0.16 mN/m | mass density ([1]; 313.15 K): 932.43 ± 0.9 kg/m3 | viscosity ([1]; 313.15 K): 1.7 ± 0.05 mPa·s | mass density ([1]; 316 K): 929.12 ± 0.92 kg/m3 | vapor or sublimation pressure ([1]; 317.63 K): 0.535 ± 0.08 kPa | vapor or sublimation pressure ([1]; 318.25 K): 0.548 ± 0.08 kPa | surface tension liquid-gas ([1]; 323.15 K): 15.95 ± 0.15 mN/m | viscosity ([1]; 323.15 K): 1.44 ± 0.05 mPa·s | mass density ([1]; 325.62 K): 917.74 ± 0.99 kg/m3 | vapor or sublimation pressure ([1]; 328.59 K): 0.988 ± 0.08 kPa | vapor or sublimation pressure ([1]; 328.78 K): 0.996 ± 0.08 kPa | mass density ([1]; 330.47 K): 912.06 ± 1 kg/m3 | vapor or sublimation pressure ([1]; 332.94 K): 1.295 ± 0.081 kPa | surface tension liquid-gas ([1]; 333.15 K): 15.16 ± 0.15 mN/m | mass density ([1]; 333.15 K): 909.32 ± 1 kg/m3 | viscosity ([1]; 333.15 K): 1.23 ± 0.04 mPa·s | vapor or sublimation pressure ([1]; 336.67 K): 1.642 ± 0.081 kPa | vapor or sublimation pressure ([1]; 339.58 K): 1.926 ± 0.081 kPa | mass density ([1]; 340.05 K): 900.68 ± 1.1 kg/m3 | surface tension liquid-gas ([1]; 343.15 K): 14.5 ± 0.15 mN/m | viscosity ([1]; 343.15 K): 1.06 ± 0.03 mPa·s | thermal conductivity ([1]; 343.15 K): 0.1038 ± 0.0005 W/m/K | vapor or sublimation pressure ([1]; 343.99 K): 2.426 ± 0.081 kPa | mass density ([1]; 344.8 K): 894.99 ± 1.1 kg/m3 | mass density ([1]; 349.65 K): 889.31 ± 1.2 kg/m3 | vapor or sublimation pressure ([1]; 349.86 K): 3.277 ± 0.081 kPa | surface tension liquid-gas ([1]; 353.15 K): 13.77 ± 0.14 mN/m | mass density ([1]; 353.15 K): 884.79 ± 1.2 kg/m3 | viscosity ([1]; 353.15 K): 0.92 ± 0.03 mPa·s | vapor or sublimation pressure ([1]; 360.26 K): 5.47 ± 0.082 kPa | surface tension liquid-gas ([1]; 363.15 K): 13.05 ± 0.14 mN/m | viscosity ([1]; 363.15 K): 0.81 ± 0.03 mPa·s | mass density ([1]; 364.04 K): 872.24 ± 1.3 kg/m3 | surface tension liquid-gas ([1]; 373.15 K): 12.38 ± 0.14 mN/m | mass density ([1]; 373.15 K): 861.35 ± 1.4 kg/m3 | viscosity ([1]; 373.15 K): 0.71 ± 0.02 mPa·s | vapor or sublimation pressure ([1]; 376.51 K): 10.96 ± 0.085 kPa | vapor or sublimation pressure ([1]; 379.31 K): 12.23 ± 0.085 kPa | vapor or sublimation pressure ([1]; 381.23 K): 13.17 ± 0.086 kPa | viscosity ([1]; 383.15 K): 0.63 ± 0.02 mPa·s | vapor or sublimation pressure ([1]; 383.17 K): 14.24 ± 0.086 kPa | mass density ([1]; 383.2 K): 849.47 ± 1.4 kg/m3 | vapor or sublimation pressure ([1]; 383.58 K): 14.44 ± 0.086 kPa | vapor or sublimation pressure ([1]; 388.92 K): 17.67 ± 0.088 kPa | vapor or sublimation pressure ([1]; 389.73 K): 18.2 ± 0.088 kPa | vapor or sublimation pressure ([1]; 390.88 K): 18.9 ± 0.088 kPa | surface tension liquid-gas ([1]; 393.15 K): 10.98 ± 0.13 mN/m | mass density ([1]; 393.15 K): 837.64 ± 1.5 kg/m3 | viscosity ([1]; 393.15 K): 0.56 ± 0.02 mPa·s | vapor or sublimation pressure ([1]; 396.28 K): 22.95 ± 0.091 kPa | mass density ([1]; 397.6 K): 832.37 ± 1.6 kg/m3 | viscosity ([1]; 403.15 K): 0.51 ± 0.02 mPa·s | mass density ([1]; 407.22 K): 821 ± 1.6 kg/m3 | vapor or sublimation pressure ([1]; 407.56 K): 33.46 ± 0.096 kPa | surface tension liquid-gas ([1]; 413.15 K): 9.58 ± 0.12 mN/m | mass density ([1]; 413.15 K): 813.94 ± 1.7 kg/m3 | vapor or sublimation pressure ([1]; 413.82 K): 40.8 ± 0.1 kPa | mass density ([1]; 421.58 K): 803.91 ± 1.8 kg/m3 | viscosity ([1]; 423.15 K): 0.41 ± 0.02 mPa·s | vapor or sublimation pressure ([1]; 423.24 K): 54.11 ± 0.11 kPa | surface tension liquid-gas ([1]; 433.15 K): 8.18 ± 0.12 mN/m | mass density ([1]; 433.15 K): 790.24 ± 1.9 kg/m3 | vapor or sublimation pressure ([1]; 446.26 K): 100.82 ± 0.13 kPa | molar heat capacity at constant pressure ([2]; 293.15 K): 511.5 ± 4 J/K/mol | molar heat capacity at constant pressure ([2]; 298 K): 513.6 ± 4 J/K/mol | molar heat capacity at constant pressure ([2]; 303.15 K): 515.8 ± 4 J/K/mol | molar heat capacity at constant pressure ([2]; 306.25 K): 517.2 ± 4 J/K/mol | molar heat capacity at constant pressure ([2]; 313.12 K): 520.1 ± 4 J/K/mol | molar heat capacity at constant pressure ([2]; 319 K): 522.7 ± 4 J/K/mol | molar heat capacity at constant pressure ([2]; 323.25 K): 524.5 ± 4.1 J/K/mol | molar heat capacity at constant pressure ([2]; 327.55 K): 526.4 ± 4.1 J/K/mol | molar heat capacity at constant pressure ([2]; 334.75 K): 529.1 ± 4.1 J/K/mol | molar heat capacity at constant pressure ([2]; 337.88 K): 530.8 ± 4.1 J/K/mol | molar heat capacity at constant pressure ([2]; 342.23 K): 532.7 ± 4.1 J/K/mol | molar heat capacity at constant pressure ([2]; 348.05 K): 535.2 ± 4.1 J/K/mol | molar heat capacity at constant pressure ([2]; 352.2 K): 538.8 ± 4.2 J/K/mol | molar heat capacity at constant pressure ([2]; 358.83 K): 539.9 ± 4.2 J/K/mol | molar heat capacity at constant pressure ([2]; 364.28 K): 542.2 ± 4.2 J/K/mol | molar heat capacity at constant pressure ([2]; 370.25 K): 543 ± 4.2 J/K/mol | molar heat capacity at constant pressure ([2]; 377.55 K): 548 ± 4.2 J/K/mol | molar heat capacity at constant pressure ([2]; 382.48 K): 550.1 ± 4.3 J/K/mol | molar heat capacity at constant pressure ([2]; 388.65 K): 552.3 ± 4.3 J/K/mol | molar heat capacity at constant pressure ([2]; 393.15 K): 554.7 ± 4.3 J/K/mol | molar heat capacity at constant pressure ([2]; 399.83 K): 557.7 ± 4.3 J/K/mol | molar heat capacity at constant pressure ([2]; 407.15 K): 560.8 ± 4.3 J/K/mol | molar heat capacity at constant pressure ([2]; 415.73 K): 564.5 ± 4.4 J/K/mol | molar heat capacity at constant pressure ([2]; 425.95 K): 568.4 ± 4.4 J/K/mol
